Test results published in PMC12040169 (PLOS Biology, 2025).

Assay: in vitro
Conditions: human, hela cells, % viability

Compared with `CCOC(=O)c1ccc(-c2ccc(OC)cc2)cc1` [CBK002658], `Cc1ccc(Oc2ccc([N+](=O)[O-])cc2)c(Br)c1` [CBK002832] is lower in viability at 28.5 h, 10 µM: 95.2% for the first, 90.6% for the second.

Compared with `COc1ccc([C@@]23CC/C(=N/NS(=O)(=O)c4ccc(C)cc4)C[C@@H]2N(Cc2ccccc2)CC3)cc1OC` [CBK002717], `COc1ccc([C@@]23CCC(NC(=O)CCc4cccnc4)C[C@@H]2N(C)CC3)cc1OC` (stereo partly shown) [CBK003770] is lower in viability at 28.5 h, 10 µM: 95.5% for the first, 92.8% for the second.

Going from `O=[N+]([O-])c1ccc(Oc2ccccc2)nc1` [CBK002726] to `O=[N+]([O-])c1ccc(Sc2cccc(F)c2)nc1` [CBK002905], the viability at 28.5 h, 10 µM rises from 85.8% to 103%.

Compared with `N#Cc1c(Oc2cccc3cccnc23)cccc1C(F)(F)F` [CBK002728], `O=[N+]([O-])c1ccc(Oc2cccc3cccnc23)c(C(F)(F)F)c1` [CBK002739] is lower in viability at 28.5 h, 10 µM: 105% for the first, 80.6% for the second.

Compared with `N#Cc1ccc(COc2ccccc2)cc1` [CBK002738], `N#Cc1ccc(COc2cccc(C(F)(F)F)c2)cc1` [CBK002811] is higher in viability at 28.5 h, 10 µM: 96.4% for the first, 103% for the second.

First: Cn1cnc([N+](=O)[O-])c1Oc1ccccc1OCc1ccccc1 [CBK002747]
Second: COc1ccc([N+](=O)[O-])c(Oc2ccccc2OCc2ccccc2)n1 [CBK002753]
The viability at 28.5 h, 10 µM of the first is higher: 91.7% for the first, 88% for the second.

Compared with `Clc1ccc(COc2ccccc2OCc2ccccc2)s1` [CBK002766], `Cc1ccc(OCc2ccccc2)c(Br)c1` [CBK002833] is higher in viability at 28.5 h, 10 µM: 87.7% for the first, 105% for the second.

First: FC(F)(F)Sc1ccc(COc2cccc3cccnc23)cc1 [CBK002776]
Second: Cc1cc(=O)oc2cc(SCc3ccc(SC(F)(F)F)cc3)ccc12 [CBK002897]
The viability at 28.5 h, 10 µM of the first is lower: 94.5% for the first, 97.6% for the second.

First: Cn1cnc([N+](=O)[O-])c1Oc1cccc(C(F)(F)F)c1 [CBK002790]
Second: COc1ccc([N+](=O)[O-])c(Oc2cccc(C(F)(F)F)c2)n1 [CBK002796]
The viability at 28.5 h, 10 µM of the first is lower: 87% for the first, 94.5% for the second.

Going from `O=[N+]([O-])c1cc(F)ccc1Oc1cccc(C(F)(F)F)c1` [CBK002802] to `Cc1ccc(Oc2ccc(C(F)(F)F)cc2[N+](=O)[O-])c(Br)c1` [CBK002817], the viability at 28.5 h, 10 µM rises from 91.9% to 93.1%.

First: Cc1ccc(Oc2c([N+](=O)[O-])ncn2C)c(Br)c1 [CBK002819]
Second: Cc1ccc(Oc2ncccc2[N+](=O)[O-])c(Br)c1 [CBK002822]
The viability at 28.5 h, 10 µM of the first is higher: 99.2% for the first, 94.8% for the second.

First: Cc1ccc(Oc2cc(C)c([N+](=O)[O-])cn2)c(Br)c1 [CBK002823]
Second: Cc1ccc(OCc2ccc(Cl)nc2)c(Br)c1 [CBK002842]
The viability at 28.5 h, 10 µM of the first is higher: 92.2% for the first, 75.8% for the second.

Compared with `Cc1ccc(OCc2ccc(Cl)s2)c(Br)c1` [CBK002840], `Cc1cc(=O)oc2cc(SCc3ccc(Cl)s3)ccc12` [CBK002898] is higher in viability at 28.5 h, 10 µM: 79% for the first, 89.5% for the second.

Compared with `CCN(CC)C(=O)[C@@H]1CCCN1c1nc(O)cc(C(F)(F)F)n1` [CBK002867], `O=C(NC1CCCC1)C1CCCN1c1nc(O)cc(C(F)(F)F)n1` (stereo not shown) [CBK003927] is lower in viability at 28.5 h, 10 µM: 92% for the first, 83.5% for the second.

Compared with `Fc1cccc(Sc2nnnn2-c2ccccc2)c1` [CBK002906], `Cc1ccccc1CSc1cccc(F)c1` [CBK002913] is higher in viability at 28.5 h, 10 µM: 108% for the first, 109% for the second.

Compared with `N#Cc1ccc(Sc2cccc(F)c2)c(F)c1` [CBK002909], `N#Cc1ccc(CSc2cccc(F)c2)cc1` [CBK002918] is lower in viability at 28.5 h, 10 µM: 115% for the first, 109% for the second.

Compared with `Cc1cc(=O)oc2cc(Sc3cccc(C(F)(F)F)c3C#N)ccc12` [CBK002914], `CCNc1nc(Sc2ccc(Cl)cc2)cc(C(F)(F)F)n1` [CBK003349] is lower in viability at 28.5 h, 10 µM: 93.3% for the first, 79.4% for the second.

Compared with `Cc1cc(CSc2cccc(F)c2)no1` [CBK002916], `N#Cc1ccccc1-c1ccc(CSc2cccc(F)c2)cc1` [CBK002920] is higher in viability at 28.5 h, 10 µM: 97% for the first, 107% for the second.

First: CN1CCN(c2nc(NS(=O)(=O)c3ccc(C#N)cc3)cc3ccccc23)CC1 [CBK002977C]
Second: O=S(=O)(Nc1ccc(N2CCNCC2)c2ccccc12)c1ccc(Cl)s1 [CBK003146C]
The viability at 28.5 h, 10 µM of the first is lower: 94.8% for the first, 104% for the second.

Going from `CC(C)(C)OC(=O)N1CCN(c2ccc(C(F)(F)F)c(Cl)n2)CC1` [CBK003030] to `CC(C)(C)OC(=O)N1CCN(c2ccc(N)cn2)CC1` [CBK003463], the viability at 28.5 h, 10 µM rises from 88.9% to 95.5%.

Compared with `COc1ccc(OC)c(CCO)c1` [CBK003033], `COc1ccc(NC(=O)C2CCCN2c2nc(O)cc(C(F)(F)F)n2)c(OC)c1` (stereo not shown) [CBK003951] is higher in viability at 28.5 h, 10 µM: 94.4% for the first, 94.9% for the second.

Compared with `CC(C)(C)OC(=O)N1CCC(Oc2ccccc2C#N)C1` (stereo not shown) [CBK003039], `CC(C)(C)OC(=O)N1CCN(c2ccccc2O)CC1` [CBK003878] is higher in viability at 28.5 h, 10 µM: 84.9% for the first, 94.5% for the second.

First: Cc1cccc(C)c1OCC(O)CNCCc1ccccc1 (stereo not shown) [CBK003072]
Second: OC(CNCCc1c[nH]c2ccccc12)COc1cccc2c1CCCC2 (stereo not shown) [CBK003831]
The viability at 28.5 h, 10 µM of the first is higher: 107% for the first, 93.9% for the second.

Compared with `O=S(=O)(Nc1ccc(N2CCNCC2)c2ccccc12)c1cc(Cl)sc1Cl` [CBK003116C], `O=C(Nc1c(F)cccc1F)n1ccc2c(N3CCNCC3)cccc21` [CBK003745C] is lower in viability at 28.5 h, 10 µM: 93.9% for the first, 89.5% for the second.

First: CC(C)(C)OC(=O)N1CCN(c2ccc(N)c3ccccc23)CC1 [CBK003162]
Second: CC(C)(C)OC(=O)N1CCN(c2ccnc(N)n2)CC1 [CBK003529]
The viability at 28.5 h, 10 µM of the first is lower: 88.3% for the first, 99.4% for the second.

First: c1ccc(CNc2cccc(N3CCNCC3)n2)cc1 [CBK003176T]
Second: CC(NC(=O)n1ccc2c(N3CCNCC3)cccc21)c1ccccc1 (stereo not shown) [CBK003729C]
The viability at 28.5 h, 10 µM of the first is higher: 92% for the first, 90.7% for the second.

First: CC(C)(C)OC(=O)NC(C)(C)C(=O)N1CC(C(=O)O)C(c2cc3ccccc3o2)C1 (stereo not shown) [CBK003236]
Second: CC(C)(CN(Cc1ccccc1)C(=O)/C=C/c1ccccc1)NC(=O)OC(C)(C)C [CBK003266]
The viability at 28.5 h, 10 µM of the first is lower: 88% for the first, 91.2% for the second.

Going from `O=C(CCC(=O)c1ccccc1)NC1CCc2ccccc21` (stereo not shown) [CBK003351] to `C[C@H](NC(=O)OC1CC[C@@]2(c3ccccc3)CCN(C)[C@H]2C1)c1cccc2ccccc12` (stereo partly shown) [CBK003664], the viability at 28.5 h, 10 µM rises from 103% to 111%.

Going from `Cc1ccc(S(=O)(=O)N2CCC(OC(N)=O)CC2)cc1` [CBK003369] to `CC(C)CC(=O)N1CCN(C(=O)c2ccc(F)cc2)CC1` [CBK003603], the viability at 28.5 h, 10 µM falls from 106% to 91.1%.

Compared with `CC(C)(C)OC(=O)CN1C(=O)N[C@@H]2CCCC[C@@H]21` [CBK003423], `CSc1nc(N)cc(N2CCN(C(=O)OC(C)(C)C)CC2)n1` [CBK003458] is higher in viability at 28.5 h, 10 µM: 84.8% for the first, 111% for the second.

Going from `CCC(CC)Cn1c(-c2cccnc2)nc2cc(S(=O)(=O)NCCO)ccc21` [CBK003450] to `COC(=O)c1sccc1S(=O)(=O)n1ccc2ccc(Br)cc21` [CBK003528], the viability at 28.5 h, 10 µM rises from 91% to 92.6%.

Compared with `O=C(O)c1cccc2c3c([nH]c12)CCCCC3` [CBK003451], `OC(COc1cccc2c1CCCC2)CN1CCC(O)(c2ccccc2)CC1` (stereo not shown) [CBK003585] is higher in viability at 28.5 h, 10 µM: 85% for the first, 87.3% for the second.

Going from `CC(=O)Nc1ccc2c(c1)CCC(C)C2=O` (stereo not shown) [CBK003474] to `COc1ccc(NC(=O)C2CCCN2c2nc(O)cc(C(F)(F)F)n2)cc1` (stereo not shown) [CBK003704], the viability at 28.5 h, 10 µM falls from 78.4% to 77%.

First: Cc1c(Cl)cccc1S(=O)(=O)Nc1nc(CCN2CCOCC2=O)cs1 [CBK003498K]
Second: Nc1nc(CCN2CCOCC2=O)cs1 [CBK003792]
The viability at 28.5 h, 10 µM of the first is higher: 87.7% for the first, 85.8% for the second.

Compared with `CN(C(=S)NCc1ccccc1)C1CC[C@@]2(c3ccc(F)cc3)CCN(C)[C@H]2C1` (stereo partly shown) [CBK003500C], `CCNC(=S)NC1CC[C@@]2(C3=CC=CC4C=CC=CC34)CCN(C)[C@H]2C1` (stereo partly shown) [CBK003596C] is higher in viability at 28.5 h, 10 µM: 90.1% for the first, 91.7% for the second.

Compared with `Cn1c(=O)c2c(O)cc(=O)oc2c2ccccc21` [CBK003546], `Nn1c(-c2cccs2)nc2ccccc2c1=O` [CBK003650] is higher in viability at 28.5 h, 10 µM: 93.3% for the first, 99.2% for the second.

First: Cc1cc(Oc2ccccc2)nc(NCc2ccccc2)n1 [CBK003557]
Second: Cc1nc(Nc2ccc(Cl)cc2)nc(Oc2ccccc2)n1 [CBK003915]
The viability at 28.5 h, 10 µM of the first is lower: 99.1% for the first, 101% for the second.

First: Oc1cc(C(F)(F)F)nc(NCc2ccncc2)n1 [CBK003563]
Second: CCCCc1cc(=O)[nH]c(NCc2ccc(C(F)(F)F)cc2)n1 [CBK003946]
The viability at 28.5 h, 10 µM of the first is lower: 85.5% for the first, 92.5% for the second.

Compared with `COc1cc(C(=O)N2CCN(C(=O)CC(C)C)CC2)cc(OC)c1OC` [CBK003604], `COc1cc2c(cc1OC)CN(CC(O)COc1cccc3c1CCCC3)CC2` (stereo not shown) [CBK003828] is higher in viability at 28.5 h, 10 µM: 99.2% for the first, 113% for the second.

First: CCCCNC(=S)N[C@H]1CC[C@@]2(C3=CC=CC4C=CC=CC34)CCN(C)[C@H]2C1 (stereo partly shown) [CBK003610C]
Second: CC(C)CNCC1CC(C(=O)N2CCC(Cc3ccccc3)CC2)=NO1 (stereo not shown) [CBK003718C]
The viability at 28.5 h, 10 µM of the first is higher: 101% for the first, 89.7% for the second.

First: C=C(C)CNc1ccccc1C(=O)OC [CBK003656C]
Second: CC(=O)N1CC(C)(C)c2ccccc21 [CBK003715]
The viability at 28.5 h, 10 µM of the first is lower: 89.1% for the first, 99.6% for the second.

First: O=c1cc(-c2ccccc2)nc(N2CCOCC2)[nH]1 [CBK003840]
Second: Clc1nc2ccccc2nc1N1CCNCC1 [CBK003880]
The viability at 28.5 h, 10 µM of the first is lower: 93.9% for the first, 96% for the second.

Compared with `CN1CC(CO)Oc2ccccc21` (stereo not shown) [CBK003872C], `C[C@@H]1CN(c2ccc(C(F)(F)F)c(OCc3ccccc3)n2)CCN1` [CBK003987A] is lower in viability at 28.5 h, 10 µM: 104% for the first, 94% for the second.

First: Clc1ncccc1OCCOc1ccccc1 [CBK003888]
Second: NC1CCN(c2nccnc2OCCOc2cccnc2)CC1 [CBK003889F]
The viability at 28.5 h, 10 µM of the first is higher: 87.2% for the first, 82.3% for the second.

First: COc1cccc(CC2(C#N)CC2)c1 [CBK003907]
Second: CCOc1ccsc1C(=O)Nc1cc(C)ccn1 [CBK004029]
The viability at 28.5 h, 10 µM of the first is lower: 87.5% for the first, 88.3% for the second.

Going from `FC(F)(F)c1ccc(N2CCNCC2)nc1OCc1ccccc1COc1ccccc1` [CBK003965A] to `CCSc1nc(N2CCNC[C@@H]2C)ccc1C(F)(F)F` [CBK003986A], the viability at 28.5 h, 10 µM rises from 91.9% to 96.1%.

Same assay, conditions: human, hela cells, % viability, bulk resorufin, single well

Going from `CN(C)[C@H]1CCC[C@@H]1C(=O)Nc1ccc(Cl)c(Cl)c1` [CBK003406] to `CCC(=O)N(C[C@H]1CCC[C@@H]1N(C)C)c1ccc(Cl)c(Cl)c1` [CBK003408], the viability at 28.5 h, 10 µM rises from 86.9% to 96.5%.
